# Structures can show the parent of a compound that is named as a salt.
# Biological target: T1, DPP-IV from porcine kidneys (Sus scrofa, UniProt P22411)
# T1 construct: DPP-IV from porcine kidneys (Sigma, Munich); purchased Sigma, Munich; host or cells: porcine kidney tissue
# Assay: Measurement of the DPP-IV activity (fluorimetric, H-Ala-Pro-AFC substrate)
# Type: biochemical
# Settings: substrate H-Ala-Pro-AFC 15 μM, Tris/HCl pH 7.4, room temperature
# Method: Measurement of the DPP-IV Activity:
# DPP-IV from porcine kidneys (Sigma, Munich)
# H-Ala-Pro-AFC (Bachem, Weil am Rhein)
# DPP-IV (1 mU/ml, end concentration)
# H-Ala-Pro-AFC (15 μm end concentration)
# in Tris/HCl (40 mM, pH 7.4), total volume 0.2 ml
# The reaction was performed at room temperature for different periods (typically 10 minutes) and stopped at the end of the reaction by adding 20 μl of ZnCl2 (1 M). The conversion of H-Ala-Pro-AFC was determined fluorimetrically by measuring the emission at 535 nm on excitation at 405 nm. In the case of addition of inhibitors, the buffer volume added was adjusted such that a total volume of the test mixture of 200 μl maintained.
# % inhibition at a fixed concentration was calculated as follows: (1-enzyme activityinhibited reaction/enzyme activityuninhibited reaction)×100
# IC50 values for inhibitors were determined by varying the inhibitor concentrations in the case of the specified substrate concentration of 15 μM. Ki and Km values were determined by corresponding variation of substrate and inhibitor concentration as described (Dixon, M. and Webb, E. C. (1979) Enzymes, third edition, pp. 47-206, Academic Press). The values for Km, IC50 and Ki were calculated using a commercially available software package (Leatherbarrow, R. J. (1992) GraFit Version 3.0, Erithacus Software Ltd. Staines, U.K.).
# T1 sequence (P22411 whole entry): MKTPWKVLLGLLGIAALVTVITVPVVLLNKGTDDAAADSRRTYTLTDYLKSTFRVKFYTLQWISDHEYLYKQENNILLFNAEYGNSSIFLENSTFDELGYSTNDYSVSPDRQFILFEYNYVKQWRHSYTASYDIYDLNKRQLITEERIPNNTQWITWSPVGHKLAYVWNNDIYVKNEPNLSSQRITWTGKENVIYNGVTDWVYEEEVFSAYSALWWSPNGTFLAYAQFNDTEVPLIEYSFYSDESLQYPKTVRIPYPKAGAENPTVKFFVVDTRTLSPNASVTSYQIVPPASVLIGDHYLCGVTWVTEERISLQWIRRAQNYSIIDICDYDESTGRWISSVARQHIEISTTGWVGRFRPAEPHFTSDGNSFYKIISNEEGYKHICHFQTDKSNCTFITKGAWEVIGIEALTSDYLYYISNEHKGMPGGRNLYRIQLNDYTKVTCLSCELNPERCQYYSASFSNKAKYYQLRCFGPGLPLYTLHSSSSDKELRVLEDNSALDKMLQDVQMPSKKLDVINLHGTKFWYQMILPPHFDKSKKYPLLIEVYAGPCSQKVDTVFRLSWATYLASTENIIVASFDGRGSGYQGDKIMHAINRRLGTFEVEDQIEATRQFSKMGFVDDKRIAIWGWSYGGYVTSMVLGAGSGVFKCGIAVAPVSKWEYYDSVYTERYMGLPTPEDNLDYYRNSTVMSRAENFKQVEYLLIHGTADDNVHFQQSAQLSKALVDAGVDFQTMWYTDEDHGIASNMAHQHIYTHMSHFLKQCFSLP
row,SMILES,IC50
1,"CC(C)=CCn1c(N2CCC[C@@H](N)C2)nc2ccc(NC(=O)c3ccccc3)cc21 [Example 1, R—N-[2-(3-Aminopiperidin-1-yl)-1-(3-methylbut-2-enyl)-1H-benzimidazol-6-yl]-benzamide trifluoroacetic acid salt]",2500 nM
2,CC(C)=CCn1c(N2CCC[C@@H](N)C2)nc2ccc(NC(=O)Cc3ccccc3)cc21 [Example 2],2700 nM
